Results taken from US8518997B2, “4-(phenoxyalkyl)thio)-phenoxyacetic acids and analogs” (Janssen Pharmaceutica N.V., priority 2003, dated 2013).
“And” between values parts separate entries of the source, which are not always exact repeats. Identical values can stand only once.

Each compound was assayed against T1, PPAR delta (Homo sapiens, UniProt Q03181) (assay: Transfection assay for PPAR receptors (PPAR-Gal4 / Gal4-Luciferase reporter in HEK293 cells)). Details: HEK293 cells co-transfected with PPAR-Gal4 (δ) receptor and Gal4-Luciferase reporter, 24 hours; multiple EC50's = multiple measurements; Table 2.
T1 sequence (Q03181 171-441 limits assumed): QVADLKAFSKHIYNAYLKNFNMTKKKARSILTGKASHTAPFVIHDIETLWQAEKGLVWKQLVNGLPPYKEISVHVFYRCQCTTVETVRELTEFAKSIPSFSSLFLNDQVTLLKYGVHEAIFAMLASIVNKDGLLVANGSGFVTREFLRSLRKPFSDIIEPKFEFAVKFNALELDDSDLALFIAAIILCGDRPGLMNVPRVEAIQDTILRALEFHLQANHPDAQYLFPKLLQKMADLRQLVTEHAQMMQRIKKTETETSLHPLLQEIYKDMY
Type: cell-based
Method: Transfection Assay Method for PPAR Receptors
HEK293 cells were grown in DMEM/F-12 Media supplemented with 10% FBS and glutamine (GIBCOBRL). The cells were co-transfected with DNA for PPAR-Gal4 (PPARα, γ or δ) receptor and Gal4-Luciferase Reporter using the DMRIE-C Reagent. On the following day, the medium was replaced with 5% Charcoal treated FBS growth medium. After six hours, cells were trypsinized and seeded at a density of 50,000 cell/well into 96 well plates and incubated overnight at 37° C. in a 5% CO2 incubator. Cells were then treated with test compounds or vehicle and incubated for 24 hours at 37° C. in a 5% CO2 incubator. Luciferase activity was assayed using the Steady-Glo Luciferase Assay Kit from Promega. […] Steady-Glo Luciferase Assay Kit was purchased from Promega Part# E254B.

SMILES	EC50
COCOC(COc1ccc(C(F)(F)F)cc1)CSc1ccc(OCC(=O)O)c(C)c1 (stereo not shown) [Compound 24, {4-[2-Methoxymethoxy-3-(4-trifluoromethyl-phenoxy)-propylsulfanyl]-2-methyl-phenoxy}-acetic acid]	6.3 nM and 6.6 nM (2×) and 5.1 nM and 6.4 nM and 3.7 nM
Cc1cc(SCC(COc2ccc(C(F)(F)F)cc2)OCC(=O)O)ccc1OCC(=O)O (stereo not shown) [Compound 26, {4-[2-Carboxymethoxy-3-(4-trifluoromethyl-phenoxy)-propylsulfanyl]-2-methyl-phenoxy}-acetic acid]	126 nM
COc1ccc(OC(COc2ccc(C(F)(F)F)cc2)CSc2ccc(OCC(=O)O)c(C)c2)cc1 (stereo not shown) [Compound 29, {4-[2-(4-Methoxy-phenoxy)-3-(4-trifluoromethyl-phenoxy)-propylsulfanyl]-2-methyl-phenoxy}-acetic acid]	62.1 nM
COC(COc1ccc(C(F)(F)F)cc1)CSc1ccc(OCC(=O)O)c(C)c1 (stereo not shown) [Compound 14, {4-[2-Methoxy-3-(4-trifluoromethyl-phenoxy)-propylsulfanyl]-2-methyl-phenoxy}-acetic acid]	16.2 nM and 21.5 nM
Cc1cc(OCC(O)COc2ccc(C(F)(F)F)cc2)ccc1OCC(=O)O (stereo not shown) [Compound 45]	618 nM
Cc1cc(SC[C@@H](COc2ccc(C(F)(F)F)cc2)OCc2ccc(Cl)s2)ccc1OCC(=O)O [Compound 27, {4-[2-(5-Chloro-thiophen-2-ylmethoxy)-3-(4-trifluoromethyl-phenoxy)-propylsulfanyl]-2-methyl-phenoxy}-acetic acid]	11.9 nM and 18.5 nM
CSCOC(COc1ccc(C(F)(F)F)cc1)CSc1ccc(OCC(=O)O)c(C)c1 (stereo not shown) [Compound 25, {2-Methyl-4-[2-methylsulfanylmethoxy-3-(4-trifluoromethyl-phenoxy)-propylsulfanyl]-phenoxy}-acetic acid]	25.2 nM and 8.9 nM and 8.8 nM
CCOC(/C=C/c1ccc(C(F)(F)F)cc1)CSc1ccc(OCC(=O)O)c(C)c1 (stereo not shown) [Compound 42, {4-[2-Ethoxy-4-(4-trifluoromethyl-phenyl)-but-3-enylsulfanyl]-2-methyl-phenoxy}-acetic Acid]	8 nM and 7.9 nM
Cc1ccc(OCC(O)CSc2ccc(OCC(=O)O)c(C)c2)cc1 (stereo not shown) [Compound 31]	> 1000 nM
COCO[C@@H](COc1ccc(C(F)(F)F)cc1)CSc1ccc(OCC(=O)O)c(C)c1 [Compound 23, (S)-{4-[2-Methoxymethoxy-3-(4-trifluoromethyl-phenoxy)-propylsulfanyl]-2-methyl-phenoxy}-acetic acid]	70 nM
CCC(COc1ccc(C(F)(F)F)cc1)CSc1ccc(OCC(=O)O)c(C)c1 (stereo not shown) [Compound 3, {2-Methyl-4-[2-(4-trifluoromethyl-phenoxymethyl)-butylsulfanyl]-phenoxy}-acetic acid]	0.08 nM and 0.04 nM
CCCC(=O)c1ccc(OC(COc2ccc(C(F)(F)F)cc2)CSc2ccc(OCC(=O)O)c(C)c2)cc1 (stereo not shown) [Compound 30, {4-[2-(4-Butyryl-phenoxy)-3-(4-trifluoromethyl-phenoxy)-propylsulfanyl]-2-methyl-phenoxy}-acetic acid]	23.9 nM
CCCCOC(COc1ccc(C(F)(F)F)cc1)CSc1ccc(OCC(=O)O)c(C)c1 (stereo not shown) [Compound 19, {4-[2-Butoxy-3-(4-trifluoromethyl-phenoxy)-propylsulfanyl]-2-methyl-phenoxy}-acetic acid]	7.5 nM and 6.5 nM
Cc1cc(SC[C@H](O)COc2ccc(C(F)(F)F)cc2)ccc1OCC(=O)O [Compound 43, Acetic acid, {4-(2R)-2-hydroxy-3-(4-trifluoromethyl-phenoxy)-propylsulfanyl}-2-methyl-phenoxyy]	43.2 nM
CCOC(COc1ccc(C(F)(F)F)cc1)CSc1ccc(CC(=O)O)cc1Cl (stereo not shown) [Compound 32, {3-Chloro-4-[2-ethoxy-3-(4-trifluoromethyl-phenoxy)-propylsulfanyl]-phenyl}-acetic acid]	11.2 nM
C=CCOC(COc1ccc(C(F)(F)F)cc1)CSc1ccc(OCC(=O)O)c(C)c1 (stereo not shown) [Compound 21, {4-[2-Allyloxy-3-(4-trifluoromethyl-phenoxy)-propylsulfanyl]-2-methyl-phenoxy}-acetic acid]	3.7 nM and 4.2 nM

The remaining lines, values ahead:

EC50	SMILES
211 nM	Cc1cc(SCC(C)Oc2ccc(C(F)(F)F)cc2)ccc1OCC(=O)O (stereo not shown) [Compound 7, {2-Methyl-4-[2-(4-trifluoromethyl-phenoxy)-propylsulfanyl]-phenoxy}-acetic acid]
79 nM	Cc1cc(SCC(O)COc2ccc(C(F)(F)F)cc2)ccc1OCC(=O)O (stereo not shown) [Compound 13]
24.3 nM	CCOC(COc1ccc(C(F)(F)F)cc1)COc1ccc(OCC(=O)O)c(C)c1 (stereo not shown) [Compound 44, {-4-[2-Ethoxy-3-(4-trifluoromethyl-phenoxy)-propoxy]-2-methyl-phenoxy}-acetic acid]
4.7 nM and 4.6 nM	CCOCC(COc1ccc(C(F)(F)F)cc1)CSc1ccc(OCC(=O)O)c(C)c1 (stereo not shown) [Compound 33, {4-[2-Ethoxymethyl-3-(4-trifluoromethyl-phenoxy)-propylsulfanyl]-2-methyl-phenoxy}-acetic acid]
5.7 nM	Cc1cc(SCC(CCC#N)COc2ccc(C(F)(F)F)cc2)ccc1OCC(=O)O (stereo not shown) [Compound 11, {4-[4-Cyano-2-(4-trifluoromethyl-phenoxymethyl)-butylsulfanyl]-2-methyl-phenoxy}-acetic acid]
144 nM	Cc1cc(SCC(O)/C=C/c2ccc(C(F)(F)F)cc2)ccc1OCC(=O)O (stereo not shown) [Compound 41]
215 nM	Cc1ccc(OCCCSc2ccc(OCC(=O)O)c(C)c2)cc1 [Compound 8]
9.2 nM and 5.6 nM	Cc1cc(SCC(C)COc2ccc(C(F)(F)F)cc2)ccc1OCC(=O)O (stereo not shown) [Compound 1, {2-Methyl-4-[2-methyl-3-(4-trifluoromethyl-phenoxy)-propylsulfanyl]-phenoxy}-acetic acid]
16.6 nM and 18.5 nM	CCC(COc1ccc(C(F)(F)F)cc1)CSc1ccc(CC(=O)O)cc1Cl (stereo not shown) [Compound 9, {3-Chloro-4-[2-(4-trifluoromethyl-phenoxymethyl)-butylsulfanyl]-phenyl}-acetic acid]
19.9 nM	Cc1cc(SCC(C/C=C/C#N)COc2ccc(C(F)(F)F)cc2)ccc1OCC(=O)O (stereo not shown) [Compound 12, {4-[5-Cyano-2-(4-trifluoromethyl-phenoxymethyl)-pent-4-enylsulfanyl]-2-methyl-phenoxy}-acetic acid]
29 nM and 56 nM	Cc1cc(SCC(CC#N)COc2ccc(C(F)(F)F)cc2)ccc1OCC(=O)O (stereo not shown) [Compound 10, {4-[3-Cyano-2-(4-trifluoromethyl-phenoxymethyl)-propylsulfanyl]-2-methyl-phenoxy}-acetic acid]
12.5 nM and 17.9 nM	CSCOC(CCc1ccc(C(F)(F)F)cc1)CSc1ccc(OCC(=O)O)c(C)c1 (stereo not shown) [Compound 39, {2-Methyl-4-[2-methylsulfanylmethoxy-4-(4-trifluoromethyl-phenyl)-butylsulfanyl]-phenoxy}-acetic Acid]
3.3 nM (2×) and 3.7 nM	CCCCCC(COc1ccc(C(F)(F)F)cc1)CSc1ccc(OCC(=O)O)c(C)c1 (stereo not shown) [Compound 6, {2-Methyl-4-[2-(4-trifluoromethyl-phenoxymethyl)-heptylsulfanyl]-phenoxy}-acetic acid]
1.9 nM and 2.9 nM	CCOCCC(COc1ccc(C(F)(F)F)cc1)CSc1ccc(OCC(=O)O)c(C)c1 (stereo not shown) [Compound 37, {4-[4-Ethoxy-2-(4-trifluoromethyl-phenoxymethyl)-butylsulfanyl]-2-methyl-phenoxy}-acetic acid]
29.6 nM	CCC(COc1ccc(C(F)(F)F)cc1)CSc1ccc(OCC(=O)O)cc1 (stereo not shown) [Compound 4, {4-[2-(4-Trifluoromethyl-phenoxymethyl)-butylsulfanyl]-phenoxy}-acetic acid]
52.9 nM	CCOC(CC(COc1ccc(C(F)(F)F)cc1)CSc1ccc(OCC(=O)O)c(C)c1)OCC (stereo not shown) [Compound 36, {4-[4,4-Diethoxy-2-(4-trifluoromethyl-phenoxymethyl)-butylsulfanyl]-2-methyl-phenoxy}-acetic acid]
2.3 nM and 4.1 nM	COCCC(COc1ccc(C(F)(F)F)cc1)CSc1ccc(OCC(=O)O)c(C)c1 (stereo not shown) [Compound 35, {4-[4-Methoxy-2-(4-trifluoromethyl-phenoxymethyl)-butylsulfanyl]-2-methyl-phenoxy}-acetic acid]
0.76 nM and 0.56 nM and 0.88 nM and 3.4 nM and 5 nM and 1.1 nM	CCO[C@H](COc1ccc(C(F)(F)F)cc1)CSc1ccc(OCC(=O)O)c(C)c1 [Compound 15, (R)-{4-[2-Ethoxy-3-(4-trifluoromethyl-phenoxy)-propylsulfanyl]-2-methyl-phenoxy}-acetic acid]
4.3 nM	CCCOC(COc1ccc(C(F)(F)F)cc1)CSc1ccc(OCC(=O)O)c(C)c1 (stereo not shown) [Compound 18, {2-Methyl-4-[2-propoxy-3-(4-trifluoromethyl-phenoxy)-propylsulfanyl]-phenoxy}-acetic acid]
4.2 nM and 3.2 nM and 1.5 nM and 4.5 nM and 0.69 nM and 2.7 nM	CCOC(COc1ccc(C(F)(F)F)cc1)CSc1ccc(OCC(=O)O)c(C)c1 (stereo not shown) [Compound 17, {4-[2-Ethoxy-3-(4-trifluoromethyl-phenoxy)-propylsulfanyl]-2-methyl-phenoxy}-acetic acid]

Same assay, conditions: Table 3 compounds of interest, tested likewise

EC50	SMILES
17.6 nM	Cc1cc(SCCCOc2ccc(C(F)(F)F)cc2)ccc1OCC(=O)O [{2-Methyl-4-[3-(4-trifluoromethyl-phenoxy)-propylsulfanyl]-phenoxy}-acetic acid]
